Experimental data reported in patent US20100196376A1, “METHOD FOR REDUCING ALLERGEN-INDUCED AIRWAY HYPERRESPONSIVENESS” (National Jewish Health, priority 2001, published 2010).

Legend:
Assay type in all cases: in vivo, mouse (BALB/c)
[1] = tested on: ovalbumin-sensitized and challenged mice (BAL eosinophils); experiment: Bronchoalveolar lavage (BAL) differential cell counts, ovalbumin-sensitized and challenged mice; settings: i.p. 2 h prior to each allergen challenge; CGRP 20 μg/kg, CGRP fragment 8-37 100 μg/kg (FIG. 3C)
Procedure: (§1) Mice (8/group/experiment) were sensitized by intraperitoneal injection of 20 μg of ovalbumin (Grade V, Sigma) emulsified in 2.25 mg alum (Alum® Inject; Pierce, Rockford, Ill.) in a total volume of 100 μl on days 0 and 14. On days 28, 29 and 30, mice were challenged via the airways by a 20-minute inhalation exposure to aerosols of ovalbumin (1% in saline) obtained from a DeVilbiss ultrasonic nebulizer (particle size 1-5 μm). Age-matched, control animal groups (8/group/experiment) consisted of mice injected with alum alone (non-sensitized) and exposed either to aerosols of saline or to aerosolized ovalbumin, and mice sensitized to ovalbumin but subsequently exposed to aerosols of saline.
Following assessment of airway function, the lungs were lavaged once with 1 ml of sterile Hank's balanced salt solution (HBSS) pre-warmed at 37° C. The recovered BAL fluids were placed in Eppendorf tubes and were centrifuged at 4° C. for 5 min at 1,500 rpm. The obtained cell pellets were resuspended in 200 μl of sterile phosphate-buffered saline (PBS) and total cell numbers were determined from counting of crystal violet-stained aliquots using a hemacytometer. Differential cell counts were determined from cytospin preparations stained with Leukostat (Fisher Diagnostics, Pittsburgh, Pa.). At least 200 cells were counted from each slide in a blinded fashion.

[2] = tested on: ovalbumin-sensitized and challenged mice (airway hyperresponsiveness to methacholine); experiment: Airway function: change in lung resistance (RL) and dynamic compliance (Cdyn) after aerosolized methacholine, ovalbumin-sensitized and challenged mice
Procedure: as §1
Briefly, mice were sensitized and challenged to ovalbumin as described in Example 1. Airway function was assessed in vivo in anesthetized, mechanically ventilated mice as previously described (see, for example, Takeda et al., 1997, J. Exp. Med. 186, 449-454) by measuring changes in lung resistance (RL) and dynamic compliance (Cdyn) in response to intratracheal challenge with aerosolized methacholine at doses of 1.56, 3.125, 6.25 and 12.5 mg/ml in saline. Baseline values were recorded from data obtained after intra-tracheal challenge with aerosolized saline. The data are presented in percent of change from baseline RL, and Cdyn.

[3] = tested on: ovalbumin-sensitized and challenged mice (tissue infiltrating eosinophils); experiment: Tissue infiltrating eosinophils, MBP immunoperoxidase and morphometric analysis of lung sections; settings: i.p. 2 h prior to each allergen challenge; CGRP 20 μg/kg, CGRP fragment 8-37 100 μg/kg (FIG. 3D)
Procedure: For histology and immunohistochemistry, the lungs of the mice were inflated and fixed with 4% paraformaldehyde in PBS for 24 h at 4° C. followed by processing into paraffin. Five μm-thick sections were cut from the paraffin blocks, deparaffinized and stained with hematoxylin and eosin for routine histology.
The pan neuronal marker PGP9.5, CGRP and tissue eosinophils were detected by immunoperoxidase. Unless otherwise stated, all incubations were carried out at room temperature. All washes were performed with TBS (50 mM TRIS-buffered saline pH 7.6) 3 times for 5 min. Endogenous peroxidase was blocked by incubation of tissue sections with H2O2 (0.3% in methanol) for 30 minutes. […]
For tissue eosinophils, the sections were pretreated for 5 min with 0.01% trypsin in TBS to retrieve antigens. […] CGRP was detected with a polyclonal rabbit anti-CGRP antibody (Biogenesis) diluted 1:200. […]
The data of immunohistochemistry were quantitatively analyzed (morphometric analysis) on a G-3 Macintosh computer using the National Institutes of Health (NIH) Scion Image analysis software. […]
The number of tissue infiltrating eosinophils was determined by counting all MBP-positive cells present in the airway wall including the adventitia. When eosinophils were present in tissue areas connecting blood vessels to adjacent airways only 50% of these cells were counted for these airways. […]

CGRP(8-37): highly selective CGRP receptor antagonist, human synthetic CGRP (fragment 8-37), from Sigma
Numbers of BAL eosinophils [1]: no significant effect
Inhibitory effect of CGRP on AHR after pretreatment with the receptor antagonist ([2]; CGRP i.p. after allergen challenge period, animals pretreated with CGRP(8-37) (FIGS. 4A, 4B)): totally neutralized
AHR in sensitized mice ([2]; administration after the period of allergen challenge, CGRP i.p. at 2 h prior to assessment of airway function (FIGS. 4A, 4B)): did not alter
Extent / development of AHR ([2]; i.p. 2 h prior to each allergen challenge, CGRP 20 μg/kg, CGRP fragment 8-37 100 μg/kg (FIGS. 3A, 3B)): did not produce any significant change
Numbers of tissue infiltrating eosinophils [3]: no significant effect
